Test results from the supplement of paper PMC10307832.

What was measured:
Assay in all cases: relative viability (nuclei count vs DMSO), 5 days (fraction); higher = more cells survive
[1] = compound: Cn1cc(-c2cnn3c(N)c(Br)c([C@@H]4CCCNC4)nc23)cn1 + CS(=O)(=O)CCNCc1ccc(-c2ccc3ncnc(Nc4ccc(OCc5cccc(F)c5)c(Cl)c4)c3c2)o1 [Lapatinib] (partner 2 µM)
Summary of the method: (§1)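 A single step with final 0.05% Triton X-100, 1% formaldehyde and 1 ug/ml Hoechst fixed the cells and stained nuclei 5 days after treatment. Lung cancer cell lines in 1536-well plates had been treated by pin tool the day after seeding with one drug alone or a fixed anchor-drug dose plus five library-drug doses (not always all listed) in √10 steps, and nuclei were counted on 4× images. Relative viability is the ratio of nuclei in treated wells to nuclei in vehicle wells, taken as the median of duplicate plates.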

[2] = compound: Cn1cc(-c2cnn3c(N)c(Br)c([C@@H]4CCCNC4)nc23)cn1 + Cc1nc(Nc2ncc(C(=O)Nc3c(C)cccc3Cl)s2)cc(N2CCN(CCO)CC2)n1 [Dasatinib] (partner 0.075 µM)
Summary of the method: as §1

[3] = compound: Cn1cc(-c2cnn3c(N)c(Br)c([C@@H]4CCCNC4)nc23)cn1 + Nc1nc2[nH]cc(CCc3ccc(C(=O)N[C@@H](CCC(=O)O)C(=O)O)cc3)c2c(=O)[nH]1 [Pemetrexed] (partner 0.2 µM)
Summary of the method: as §1

[4] = compound: Cn1cc(-c2cnn3c(N)c(Br)c([C@@H]4CCCNC4)nc23)cn1 + C[C@@H](Oc1cc(-c2cnn(C3CCNCC3)c2)cnc1N)c1c(Cl)ccc(F)c1Cl [Crizotinib] (partner 1 µM)
Summary of the method: as §1

Cell Line	relative viability ([1]; first compound 0.05 µM)	relative viability ([1]; first compound 0.1581 µM)	relative viability ([1]; first compound 0.5 µM)	relative viability ([1]; first compound 1.581 µM)	relative viability ([1]; first compound 5 µM)	relative viability ([2]; first compound 0.05 µM)	relative viability ([2]; first compound 0.1581 µM)	relative viability ([2]; first compound 0.5 µM)	relative viability ([2]; first compound 1.581 µM)	relative viability ([2]; first compound 5 µM)	relative viability ([3]; first compound 0.05 µM)	relative viability ([3]; first compound 0.1581 µM)	relative viability ([3]; first compound 0.5 µM)	relative viability ([3]; first compound 1.581 µM)	relative viability ([3]; first compound 5 µM)	relative viability ([4]; first compound 0.05 µM)	relative viability ([4]; first compound 0.1581 µM)	relative viability ([4]; first compound 0.5 µM)	relative viability ([4]; first compound 1.581 µM)	relative viability ([4]; first compound 5 µM)
LCLC-97TM1	0.86	1.3	0.976	0.915	0.774	0.838	0.96	0.833	0.82	0.853	0.172	0.185	0.189	0.171	0.126	0.34	0.658	0.581	0.483	0.228
HARA	0.728	0.873	1.08	0.626	0.179	0.37	0.316	0.332	0.252	0.157	0.228	0.213	0.223	0.141	0.141	0.935	1.12	0.987	0.842	0.369
HCC-78	0.841	0.92	0.786	0.641	0.245	–	0.384	0.388	0.398	0.295	0.912	0.842	0.869	0.869	0.743	0.323	0.391	0.378	0.344	0.218
NCI-H1666	0.576	0.648	0.555	0.559	0.594	0.818	0.734	0.642	0.756	0.785	0.837	0.826	0.749	0.63	0.658	1.03	0.906	1.02	1	0.869
NCI-H2347	0.919	1.03	1.05	0.902	0.645	0.319	0.255	0.285	0.324	0.209	0.408	0.394	0.418	0.502	0.338	0.63	0.588	0.788	0.668	0.637
NCI-H838	0.955	1.15	0.964	0.667	0.775	0.196	0.298	0.277	0.284	0.254	0.229	0.168	0.175	0.17	0.151	0.925	0.987	0.783	0.785	0.561
NCI-H2023	0.978	0.739	0.416	0.258	0.127	0.616	0.513	0.427	0.225	0.156	0.175	0.124	0.115	0.118	0.112	0.702	0.428	0.436	0.272	0.172
201T	1	1.09	1.02	0.951	1.11	0.614	0.568	0.651	0.587	0.439	0.362	0.327	0.315	0.264	0.294	1.03	1.03	1.06	1.05	1.07
NCI-H1915	1	0.959	0.989	0.825	0.954	0.307	0.351	0.355	0.347	0.283	0.545	0.435	0.422	0.372	0.358	0.674	0.871	0.906	0.697	0.905
NCI-H2009	0.975	1.06	0.865	0.798	0.794	0.3	0.291	0.257	0.219	0.216	1.01	1.02	0.99	0.895	0.683	1.05	1.03	1.08	0.881	0.678
BEN	0.84	0.762	0.655	0.736	0.516	0.316	0.286	0.347	0.327	0.265	0.763	0.825	0.719	0.708	0.616	0.911	0.969	0.861	0.745	0.608
PC-14	0.322	0.366	0.363	0.332	0.257	0.272	0.203	0.196	0.113	0.063	0.13	0.1	0.102	0.089	0.0648	0.95	1.06	1.01	0.83	0.386
SK-MES-1	0.491	0.544	0.514	0.392	0.431	0.359	0.308	0.236	0.231	0.118	1.05	0.755	0.651	0.351	0.258	1.07	1.11	0.918	0.934	0.366
NCI-H727	0.867	1.05	0.813	0.88	0.426	0.29	0.292	0.333	0.403	0.287	–	–	–	–	–	0.912	0.965	0.664	0.648	0.353
NCI-H1355	1	1.08	0.92	0.969	0.859	0.705	0.705	0.596	0.652	0.566	0.978	1.16	1.11	1.08	0.88	0.984	1.12	1.07	1.01	0.698
NCI-H1975	0.888	0.862	0.835	0.635	0.798	0.393	0.355	0.409	0.331	0.346	0.304	0.25	0.249	0.261	0.189	1.01	1.05	0.781	0.764	0.714
LK-2	1.01	0.878	0.823	0.757	0.605	0.228	0.296	0.26	–	0.228	0.271	0.309	0.271	0.278	0.124	0.23	0.216	0.188	0.243	0.232

Cell Line	relative viability ([1]; first compound 0.05 µM)	relative viability ([1]; first compound 0.1581 µM)	relative viability ([1]; first compound 0.5 µM)	relative viability ([1]; first compound 1.581 µM)	relative viability ([1]; first compound 5 µM)	relative viability ([2]; first compound 0.05 µM)	relative viability ([2]; first compound 0.1581 µM)	relative viability ([2]; first compound 0.5 µM)	relative viability ([2]; first compound 1.581 µM)	relative viability ([2]; first compound 5 µM)	relative viability ([3]; first compound 0.05 µM)	relative viability ([3]; first compound 0.1581 µM)	relative viability ([3]; first compound 0.5 µM)	relative viability ([3]; first compound 1.581 µM)	relative viability ([3]; first compound 5 µM)	relative viability ([4]; first compound 0.05 µM)	relative viability ([4]; first compound 0.1581 µM)	relative viability ([4]; first compound 0.5 µM)	relative viability ([4]; first compound 1.581 µM)	relative viability ([4]; first compound 5 µM)
NCI-H661	0.441	0.503	0.518	0.48	0.324	0.898	0.962	0.891	0.82	0.432	0.98	0.635	0.667	0.754	0.588	1.15	1.23	1.12	1.05	0.98
NCI-H441	–	–	–	–	–	0.589	0.736	0.476	0.487	0.601	0.261	0.283	0.254	0.277	0.25	0.639	1.24	0.648	0.703	0.709
EBC-1	0.207	0.183	0.24	0.223	0.192	–	–	–	–	–	–	–	–	–	–	0.179	0.179	0.186	0.174	0.17
HCC-44	1.01	1.15	1.1	0.8	0.968	–	–	–	–	–	0.608	0.586	0.674	0.321	0.369	0.906	1.02	0.913	0.86	0.789
NCI-H1648	–	–	–	–	–	–	–	–	–	–	0.686	0.673	0.68	0.715	0.668	–	–	–	–	–
SW 900	–	–	–	–	–	0.496	0.585	0.671	0.448	0.197	0.449	0.468	0.493	0.295	0.305	–	–	–	–	–
ABC-1	1.18	1.18	1.18	1.26	1.04	0.479	0.561	0.497	0.484	0.301	–	–	–	–	–	1.16	0.935	1.06	0.563	0.316
NCI-H1793	0.709	0.926	0.689	0.753	0.259	0.449	0.416	0.306	0.385	0.184	1.02	0.838	0.79	0.766	0.49	–	–	–	–	–
NCI-H1395	1.01	0.634	0.756	0.833	0.397	0.397	0.463	0.399	0.368	0.351	0.695	0.445	0.535	0.578	0.446	–	–	–	–	–
NCI-H1299	0.982	0.976	0.923	0.767	0.757	–	–	–	–	–	–	–	–	–	–	0.992	0.931	0.965	0.676	0.707
ChaGo-K-1	–	–	–	–	–	0.565	0.564	0.606	0.478	0.353	0.259	0.248	0.273	0.28	0.247	1.15	1.36	1.24	0.92	1.05
NCI-H522	–	–	–	–	–	0.785	0.849	0.551	0.828	0.831	0.938	0.913	1.02	1.01	0.865	–	–	–	–	–
A549	1.03	1.11	0.909	0.795	0.643	–	–	–	–	–	–	–	–	–	–	0.783	0.962	0.778	0.531	0.492
IA-LM	0.927	0.624	0.581	0.44	0.225	–	–	–	–	–	–	–	–	–	–	0.944	1.01	0.886	0.321	0.271
LCLC-103H	–	–	–	–	–	0.511	0.449	0.412	0.425	0.289	0.539	0.463	0.482	0.428	0.298	1.04	1.11	1.13	1.03	1.1
Calu-6	1.2	0.745	0.678	0.329	0.193	–	–	–	–	–	–	–	–	–	–	0.964	0.643	0.603	0.253	0.167
